Experimental data from patent US11666580B2, “Mechanism of resistance to bet bromodomain inhibitors” (Dana-Farber Cancer Institute, Inc., priority 2015, dated 2023).

Experiments:
[1] = target: BRD4-MED1 association in SUM159 cells (Homo sapiens, UniProt O60885); test: BRD4 immunoprecipitation followed by immunoblot for MED1, resistant cells; assay type: cell-based; parameters: Observations from RIME data were pursued by BRD4 immunoprecipitation followed by immunoblot analysis for MED1 and BRD3; endogenous in cells; host or cells: SUM159 and SUM159R cells (nuclear extracts); conditions: resistant cells
Procedure: Cells were lysed five days after transfection with siRNAs in RIPA buffer. Proteins were resolved in SDS-polyacrylamide gels (4%-12%) and transferred to PVDF membranes by using a Tris-glycine buffer system. […] Cells were incubated on ice for 15 min and gently vortexed every 5 min. […] After centrifugation of the lysates at 14 g for 10 min at 4° C., supernatant was diluted with 0.6 ml buffer A, and added NP-40 to final 0.5% and treated with DNase I. The samples were then incubated at 4° C. overnight with BRD4 or Flag antibodies at 1:100 dilution and immunoprecipitates were collected on Dynabeads Protein G for 2 hr. Beads were washed with buffer B containing 150 mM NaCl and 0.5% NP-40 three times and then resuspended in gel loading buffer. Immunoblotting and immunoprecipitation experiments were repeated 2-3 times.

[2] = test system: SUM159R cells; test: Cell growth assay (viable cell numbers); assay type: cell-based, human; conditions: high concentrations (up to 20 μM) of JQ1
Procedure: (§1) Cell viability and growth assays (FIGS. 1A-1B, FIGS. 3A-3E, 3G, FIGS. 5D-5F, FIGS. 6C, 6E, 6I, FIG. 7A, FIG. 10D, FIGS. 14A-14C), cycle, apoptosis, and MDR assays were performed in triplicates and repeated 2-3 times. For cell proliferation assays, cells were plated at 500 cells per well in 96-well plates and treated the next day with inhibitors, DMSO or doxycycline (500 ng). Cells were cultured at 37° C. with 5% CO2 in the media described-above, and cell viability was measured using CellTiter-Glo three days after treatments. For cell growth assays, cells were plated at 5000 (SUM159) or 20000 (SUM149) cells per well in 6-well plates and treated the next day with inhibitors. Cells were counted every three days by cell counter. Cellular apoptosis was analyzed with an APC AnnexinV/7ADD Apoptosis Detection kit (BD Pharmingen). AnnexinV/7AAD assessments and cell cycle graphics were generated using FlowJo software V7.6.1 for Windows (Tree Star). Senescence Beta-gal staining was performed using Senescence β-Galactosidase staining kit from Cell signaling. Briefly, after JQ1 treatment (500 nM) for 72 h, SUM159 and MDA-MB-231 cells were fixed by Fixative Solution for 15 min, followed by β-Galactosidase solution incubation overnight at 37° C. The staining was checked under microscope for the development of blue color. […] Briefly, SUM159 and SUM159R cells were treated with JQ1 or DMSO for 30 min in SUM medium. Verapamil was used as a positive control at 1:1000 dilution.

[3] = test system: SUM149R cells; test: Cell growth assay (viable cell numbers); assay type: cell-based, human; conditions: high concentrations (up to 20 μM) of JQ1
Procedure: as §1

[4] = test system: SUM149 cells; test: Cell growth assay (viable cell numbers); assay type: cell-based, human; conditions: low (0.5 μM) and high (2.0 μM) doses, 6 days
Procedure: as §1

[5] = test system: SUM159 cells; test: Cell growth assay (viable cell numbers); assay type: cell-based, human; conditions: low (0.5 μM) and high (2.0 μM) doses, 6 days
Procedure: as §1

[6] = target: chromatin-bound BRD4 in SUM159 cells (Homo sapiens, UniProt O60885)
Procedure: Chem-seq was performed essentially as described^27. ChIP-seq: SUM159 and SUM159R cells (4×10^7) were grown in SUM Medium. The media were then removed and replaced with media containing 1% formaldehyde (EM grade; tebu-bio) and crosslinked for 8 min. Crosslinking was quenched by adding glycine to a final concentration of 0.2 M. The cells were washed with ice-cold PBS, harvested in PBS, and the cell pellet was washed with PBS. The nuclear fraction was extracted by first resuspending the pellet in 10 ml of LB1 buffer (50 mM HEPES-KOH [pH 7.5], 140 mM NaCl, 1mMEDTA, 10% glycerol, 0.5% NP-40 or Igepal CA-630, and 0.25% Triton X-100) for 10 min at 4° C. Cells were pelleted, resuspended in 10 ml of LB2 buffer (10 mM Tris-HCL [pH 8.0], 200 mM NaCl, 1 mM EDTA, and 0.5 mM EGTA), and mixed for 5 min. Cells were pelleted and resuspended in 300 μl of LB3 buffer (10 mM Tris-HCl [pH 8], 100 mM NaCl, 1 mM EDTA, 0.5 mM EGTA, 0.1% Na-deoxycholate, and 0.5% N-lauroylsarcosine) and sonicated in a covaris sonicator for 10 min. A total of 30 μl of 10% Triton X-100 was added, and lysate was centrifuged for 10 min at 20,000 rcf to purify the debris. The supernatant was then incubated with 100 μl of magnetic beads (Life Technologies) prebound with 20 μg BRD4 antibody (Bethyl, A301-985A), and immunoprecipitation (IP) was conducted overnight in the cold room. The beads were washed ten times in 1 ml of RIPA buffer and twice in 100 mM ammonium hydrogen carbonate (AMBIC) solution. DNA was eluted in elution buffer (50 mM Tris-HCl pH 8, 10 mM EDTA, and 1% SDS). Cross-links were reversed overnight at 65° C. RNA and protein were digested with 0.2 mg/mL RNase A for 2 hr followed by 0.2 mg/mL Proteinase K for 1 hr. DNA was purified with phenol chloroform extraction and ethanol precipitation. Libraries for Illumina sequencing were prepared following the Rubicon ThruPLEX-FD kit for 10-12 cycles.

SMILES: Cc1sc2c(c1C)C(c1ccc(Cl)cc1)=N[C@@H](CC(=O)OC(C)(C)C)c1nnc(C)n1-2 [JQ1]
- Association of BRD4 with MED1 [1]: had no such effect
- Proliferation [2]: continue to proliferate linearly over time
- Proliferation [3]: continue to proliferate linearly over time
- Proliferation [4]: severely impaired
- Proliferation [5]: severely impaired
- BRD4 occupancy at Chem-seq-defined SE regions ([6]; SUM159R, JQ1 exposure): retain chromatin-bound BRD4
- Displacement of BRD4 from chromatin ([6]; SUM159R, following JQ1 treatment): not displaced from chromatin
- Effect on H3K27ac or global transcription ([6]; resistant cells): fails to influence
